Paper PMC9444293 (Investigative Radiology, 2022)
Where two headings read alike, the source gives them in different places. Marks after values point to notes of the source that are not given here.

What was measured:
[1] = pH 7.4; cited from earlier work
[2] = Partition coefficient; type: physicochemical; conditions: pH 7.4, room temperature
[3] = type: physicochemical; conditions: 37°C, pH 7.4, 21 days, LLOQ 0.1 nmol Gd/g
[4] = type: physicochemical; conditions: after 3 days
[5] = Number of inner sphere water molecules; type: physicochemical; conditions: per Gd
[6] = IV 0.1 mmol Gd/kg bw
[7] = rat
[8] = market formulation; ref Port et al, 24; cited from earlier work
[9] = formulation; ref Port et al, 24; cited from earlier work
[10] = cited from earlier work
[11] = ref Szomolanyi et al, 23; cited from earlier work
[12] = ref Port et al, 24; cited from earlier work
[13] = 7 days after single IV 0.1 mmol Gd/kg bw
[14] = 7 days after single IV 0.1 mmol Gd/kg bw, LLOQ 0.05

## Gadopiclenol
[1]
  log Kcond: 15.5

## O=C([O-])CN1CCN(CC(=O)[O-])CCN([C@H](CO)[C@H](O)CO)CCN(CC(=O)[O-])CC1.[Gd+3] (racemic) [Gadobutrol, gadobutrol, reference compound]
[2]
  Log P (1-Butanol/Buffer): −2.22
[3]
  Gd release after 21 days in human serum (below LLOQ): < 0.1 nmol Gd/g
[4]
  Decrease of the T1 relaxation rates (R1) in zinc transmetallation assay: no change
[5]
  No. Inner Sphere Water Molecules (q): q = 1
[6]; rat plasma
  AUC^∞: 234 ± 10 (4.3%) μmol·h/L
  γ-AUC: 1.1 % of AUC^∞
[6]; rat plasma, listed as gadobutrol
  γ-AUC: 1 % of AUC^∞
[6]; rat
  Clplasma: 0.43 ± 0.02 (4.3%) L/h/kg
  Vss: 0.29 ± 0.03 (9.1%) L/kg
[6]; rat, 3-compartment model
  β t1/2: 22 ± 0.69 (3.2%) min
  γ t1/2: 13 ± 2.0 (16%) h
[6]; rat, 3-compartment model, mean estimate ± SD (CV%)
  α t1/2: 2.5 ± 1.1 (42%) min
[7]; [13]
  Gadolinium concentration, Bone marrow: 0.628 ± 0.420 nmol Gd/g wet tissue
  Gadolinium concentration, Carcass: 0.590 ± 0.162 nmol Gd/g wet tissue
  Gadolinium concentration, Heart: 0.127 ± 0.004 nmol Gd/g wet tissue
  Gadolinium concentration, Intestine: 0.453 ± 0.233 nmol Gd/g wet tissue
  Gadolinium concentration, Kidney: 19.6 ± 1.47 nmol Gd/g wet tissue
  Gadolinium concentration, Liver: 0.312 ± 0.054 nmol Gd/g wet tissue
  Gadolinium concentration, Lung: 0.218 ± 0.046 nmol Gd/g wet tissue
  Gadolinium concentration, Mesenterial lymph nodes: 0.631 ± 0.113 nmol Gd/g wet tissue
  Gadolinium concentration, Muscle: 0.074 ± 0.013 nmol Gd/g wet tissue
  Gadolinium concentration, Skin: 0.202 ± 0.057 nmol Gd/g wet tissue
  Gadolinium concentration, Spleen: 0.382 ± 0.101 nmol Gd/g wet tissue
  Gadolinium concentration, Stomach: 0.155 ± 0.010 nmol Gd/g wet tissue
[7]; [14]
  Gadolinium concentration, Blood: <0.05* nmol Gd/g wet tissue
  Gadolinium concentration, Brain: <0.05* nmol Gd/g wet tissue
[7]; femur, 7 days after single IV 0.1 mmol Gd/kg bw
  Gadolinium concentration, Bone: 1.013 ± 0.767 nmol Gd/g wet tissue
[7]; in vivo, iv
  Amount of Gd recovered in Feces, 0–5 d: 1.44% ± 1.2%
  Amount of Gd recovered in Urine, 0–1 d: 99.2% ± 1.5%
  Amount of Gd recovered in Urine, 0–5 d: 100% ± 1.6%
  Total recovery of Gd, 0–7 d: 102% ± 4.1%
[8]
  Osmolality at 37°C: 1603∥ mosmol/kg H2O
[9]
  Viscosity at 37°C: 5.0∥ mPa·s
[10]; ref Szomolanyi et al, 23, listed as gadobutrol
  r1-Relaxivity in Human Plasma at 37°C, 1.5 T: 4.8 mM⁻¹ s⁻¹
[10]; ref Szomolanyi et al, 23
  r1-Relaxivity in Human Plasma at 37°C, 1.5 T: 4.8 ± 0.1§ mM^−1 s^−1
[11]
  r1-Relaxivity in Human Plasma at 37°C, 3.0 T: 5.0 ± 0.6§ mM^−1 s^−1

## CC(O)CN1CCN(CC(=O)[O-])CCN(CC(=O)[O-])CCN(CC(=O)[O-])CC1.[Gd+3] (centres unmarked) [Gadoteridol]
[5]
  No. Inner Sphere Water Molecules (q): q = 1
[8]
  Osmolality at 37°C: 630∥ mosmol/kg H2O
[9]
  Viscosity at 37°C: 1.3∥ mPa·s
[10]; ref Szomolanyi et al, 23
  r1-Relaxivity in Human Plasma at 37°C, 1.5 T: 3.8 ± 0.1§ mM^−1 s^−1
[11]
  r1-Relaxivity in Human Plasma at 37°C, 3.0 T: 3.3 ± 0.1§ mM^−1 s^−1
[12]
  Log P (1-Butanol/Buffer): −1.98∥

## CNC[C@H](O)[C@@H](O)[C@H](O)[C@H](O)CO.CNC[C@H](O)[C@@H](O)[C@H](O)[C@H](O)CO.O=C([O-])CN(CCN(CC(=O)[O-])CC(=O)O)CCN(CC(=O)[O-])CC(=O)O.[Gd+3] [Gadopentetate dimeglumine, gadopentetate dimeglumine]
[4]
  Decrease of the T1 relaxation rates (R1) in zinc transmetallation assay: 66%

## Gd-PCTA
[1]
  log Kcond: 15.5

## CNC[C@H](O)[C@@H](O)[C@H](O)[C@H](O)CO.O=C([O-])CN1CCN(CC(=O)[O-])CCN(CC(=O)O)CCN(CC(=O)[O-])CC1.[Gd+3] [Gadoterate meglumine, gadoterate meglumine]
[4]
  Decrease of the T1 relaxation rates (R1) in zinc transmetallation assay: no change
[5]
  No. Inner Sphere Water Molecules (q): q = 1
[8]
  Osmolality at 37°C: 1350∥ mosmol/kg H2O
[9]
  Viscosity at 37°C: 2.0∥ mPa·s
[10]; ref Szomolanyi et al, 23, listed as gadoterate meglumine
  r1-Relaxivity in Human Plasma at 37°C, 1.5 T: 3.3 mM⁻¹ s⁻¹
[10]; ref Szomolanyi et al, 23
  r1-Relaxivity in Human Plasma at 37°C, 1.5 T: 3.3 ± 0.1§ mM^−1 s^−1
[11]
  r1-Relaxivity in Human Plasma at 37°C, 3.0 T: 3.0 ± 0.1§ mM^−1 s^−1
[12]
  Log P (1-Butanol/Buffer): −2.87∥
